Measurements reported in publication PMC11289455 (Scientific Reports, 2024).
Like-named read-outs stand apart in the source and are kept apart here.

Tests used:
[1] = molecular target: T1, M2 (muscarinic acetylcholine receptor M2) (Homo sapiens, UniProt P08172); experiment: SafetyScreen44: M2; format: binding
T1 construct: purchased Eurofins Cerep SafetyScreen44
T1 sequence (P08172 1-466): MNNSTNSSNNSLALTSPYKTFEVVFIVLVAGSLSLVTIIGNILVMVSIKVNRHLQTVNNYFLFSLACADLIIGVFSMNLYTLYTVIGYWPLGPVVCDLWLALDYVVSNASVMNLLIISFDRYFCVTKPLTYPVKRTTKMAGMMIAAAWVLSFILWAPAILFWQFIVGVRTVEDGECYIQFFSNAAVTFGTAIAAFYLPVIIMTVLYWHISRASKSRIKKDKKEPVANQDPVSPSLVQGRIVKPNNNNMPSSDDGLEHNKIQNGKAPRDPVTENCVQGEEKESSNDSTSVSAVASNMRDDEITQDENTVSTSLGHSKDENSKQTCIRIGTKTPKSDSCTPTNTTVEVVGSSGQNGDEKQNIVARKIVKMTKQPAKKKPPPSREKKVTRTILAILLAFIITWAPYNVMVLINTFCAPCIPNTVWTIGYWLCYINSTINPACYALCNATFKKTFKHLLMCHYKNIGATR

[2] = molecular target: T2, MAO-A (monoamine oxidase A) (Rattus norvegicus, UniProt P21396); experiment: SafetyScreen44: MAO-A; format: binding
T2 construct: purchased Eurofins Cerep SafetyScreen44
T2 sequence (P21396 1-526): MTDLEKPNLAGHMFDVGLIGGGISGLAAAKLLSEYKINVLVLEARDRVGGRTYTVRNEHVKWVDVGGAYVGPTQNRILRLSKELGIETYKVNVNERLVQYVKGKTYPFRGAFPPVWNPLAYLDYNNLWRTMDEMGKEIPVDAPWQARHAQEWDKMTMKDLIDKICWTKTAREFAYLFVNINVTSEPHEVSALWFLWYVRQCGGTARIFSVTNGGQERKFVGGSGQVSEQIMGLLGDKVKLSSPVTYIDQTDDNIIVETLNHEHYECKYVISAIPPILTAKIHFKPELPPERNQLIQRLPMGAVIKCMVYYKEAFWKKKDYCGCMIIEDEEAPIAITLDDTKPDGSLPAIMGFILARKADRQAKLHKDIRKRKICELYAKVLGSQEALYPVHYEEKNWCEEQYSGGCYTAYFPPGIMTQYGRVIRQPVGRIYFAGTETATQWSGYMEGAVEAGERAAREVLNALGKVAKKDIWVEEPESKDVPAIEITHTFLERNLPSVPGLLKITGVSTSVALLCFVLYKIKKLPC

[3] = molecular target: T3, acetylcholinesterase (Homo sapiens, UniProt P22303); experiment: SafetyScreen44: acetylcholinesterase; format: biochemical
T3 construct: purchased Eurofins Cerep SafetyScreen44

[4] = Exposure in colon tissue and colon contents in TNBS studies; format: in vivo, rat; conditions: TNBS rats, LC-MS/MS, LLOQ=2.6 nM
Procedure: Rats were deprived of food for 24 h prior to induction of colitis by intrarectal installation of TNBS 48 mg/kg (Sigma Aldrich; Raleigh, NC) in 50% ethanol on Day 0. All dose groups (n = approximately 10/group; up to 3 separate experiments) received TNBS, except negative controls, which received only water (n = 4). Rats were weighed daily. Euthanasia by overexposure to isoflurane occurred on Day 7. Following euthanasia, blood was collected retro-orbitally into serum separator microtainer tubes (Becton Dickinson; Franklin Lakes, NJ), centrifuged (2–3 min at 4 °C, 14,000 RPM), and stored at − 80 °C. Additionally, the whole colon was excised, measured, and photographed, and then cut open to allow for collection of the contents, which were weighed and flash frozen. After removal of the contents, colons were weighed and flash frozen. […] Colon weight/length ratio was calculated.
Table S3. […] All samples were analyzed using an LC-MS/MS method (LLOQ=2.6 nM).

T3 sequence (P22303 32-614): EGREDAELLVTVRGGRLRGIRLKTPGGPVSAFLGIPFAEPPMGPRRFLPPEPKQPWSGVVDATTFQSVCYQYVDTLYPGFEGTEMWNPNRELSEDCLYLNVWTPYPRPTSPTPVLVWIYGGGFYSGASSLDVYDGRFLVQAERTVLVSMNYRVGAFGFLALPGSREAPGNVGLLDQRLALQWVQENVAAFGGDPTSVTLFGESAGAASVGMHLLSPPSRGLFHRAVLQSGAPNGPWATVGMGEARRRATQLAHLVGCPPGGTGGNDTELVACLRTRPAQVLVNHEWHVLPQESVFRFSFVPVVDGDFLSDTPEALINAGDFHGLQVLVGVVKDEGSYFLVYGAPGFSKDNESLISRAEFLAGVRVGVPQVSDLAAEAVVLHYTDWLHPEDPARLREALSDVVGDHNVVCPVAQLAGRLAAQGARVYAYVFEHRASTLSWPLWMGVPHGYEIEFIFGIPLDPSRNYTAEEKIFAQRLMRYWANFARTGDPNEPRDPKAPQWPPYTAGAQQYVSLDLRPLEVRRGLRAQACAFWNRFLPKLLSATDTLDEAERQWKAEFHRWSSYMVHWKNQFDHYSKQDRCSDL

Work on CC(=O)NCCCC[C@@H]1NC(=O)[C@H](Cc2c[nH]c3c(C)cccc23)NC(=O)[C@H]([C@@H](C)O)NC(=O)[C@H](CC(N)=O)NC(=O)[C@@H](NC(C)=O)C(C)(C)SSC(C)(C)[C@@H](C(=O)N[C@@H](Cc2ccc(OCCN)cc2)C(=O)N[C@@H](Cc2ccc3ccccc3c2)C(=O)NC2(C(=O)N[C@@H](CCC(=O)O)C(=O)N[C@@H](CC(N)=O)C(=O)N[C@@H](Cc3cccnc3)C(=O)N(C)CC(N)=O)CCOCC2)NC1=O [JNJ-77242113, S^3,1,S^3,6-cyclo[N-acetyl-3-sulfanyl-L-valyl-L-asparaginyl-L-threonyl-7-methyl-L-tryptophyl-N^6-acetyl-L-lysyl-3-sulfanyl-L-valyl-O-(2-aminoethyl)-L-tyrosyl-3-(naphthalen-2-yl)-L-alanyl-4-aminooxan-4-carbonyl-L-α-glutamyl-L-asparaginyl-3-(pyridin-3-yl)-L-alanyl-N^2-methylglycinamide]] yielded an inhibition at 10 µM ([1]; 1st run, read-out: Percent inhibition of control ligand binding, M2, 1st run) of 0.3%, an inhibition at 10 µM ([1]; 2nd run, read-out: Percent inhibition of control ligand binding, M2, 2nd run) of 2% and an inhibition at 10 µM ([1]; mean of 2 runs, read-out: Percent inhibition of control ligand binding, M2, Mean) of 1.2%. The inhibition at 10 µM ([2]; 1st run, read-out: Percent inhibition of control ligand binding, MAO-A, 1st run) was 12%, the inhibition at 10 µM ([2]; 2nd run, read-out: Percent inhibition of control ligand binding, MAO-A, 2nd run) was 10.3% and the inhibition at 10 µM ([2]; mean of 2 runs, read-out: Percent inhibition of control ligand binding, MAO-A, Mean) was 11.2%. The inhibition at 10 µM ([3]; 1st run, read-out: Percent inhibition of control ligand binding, acetylcholinesterase, 1st run) was 9.8%, the inhibition at 10 µM ([3]; 2nd run, read-out: Percent inhibition of control ligand binding, acetylcholinesterase, 2nd run) was 2.2% and the inhibition at 10 µM ([3]; mean of 2 runs, read-out: Percent inhibition of control ligand binding, acetylcholinesterase, Mean) was 6%. For the same compound, the Colon tissue concentration ([4]; 0.03 mg/kg/day oral, Study 2) was “BQL”, the level at time molar ([4]; 0.1 mg/kg/day oral, Study 1, read-out: Colon content concentration) was 410 nM and the level at time molar ([4]; 0.1 mg/kg/day oral, Study 1, read-out: Colon tissue concentration) was 12.8 nM. The level at time molar ([4]; 0.1 mg/kg/day oral, Study 2, read-out: Colon content concentration) was 310 nM, the level at time molar ([4]; 0.1 mg/kg/day oral, Study 2, read-out: Colon tissue concentration) was 16.8 nM and the Colon tissue concentration ([4]; 0.1 mg/kg/day oral, Study 3) was “BQL”. The level at time molar ([4]; 0.1 mg/kg/day oral, Study 3, read-out: Colon content concentration) was 299 nM, the level at time molar ([4]; 0.3 mg/kg/day oral, Study 1, read-out: Colon tissue concentration) was 25.4 nM and the level at time molar ([4]; 1 mg/kg/day oral, Study 1, read-out: Colon content concentration) was 3340 nM. It also gave a level at time molar ([4]; 1 mg/kg/day oral, Study 2, read-out: Colon content concentration) of 3920 nM, a level at time molar ([4]; 1 mg/kg/day oral, Study 3, read-out: Colon content concentration) of 3190 nM and a level at time molar ([4]; 3 mg/kg/day oral, Study 1, read-out: Colon content concentration) of 9210 nM. For the same compound, the level at time molar ([4]; 3 mg/kg/day oral, Study 1, read-out: Colon tissue concentration) was 333 nM, the level at time molar ([4]; 3 mg/kg/day oral, Study 2, read-out: Colon content concentration) was 11700 nM and the level at time molar ([4]; 3 mg/kg/day oral, Study 2, read-out: Colon tissue concentration) was 468 nM. It also gave a level at time molar ([4]; 3 mg/kg/day oral, Study 3, read-out: Colon content concentration) of 11000 nM, a level at time molar ([4]; 3 mg/kg/day oral, Study 3, read-out: Colon tissue concentration) of 268 nM and a level at time molar ([4]; male, Sprague-Dawley, rat, colon content, po, 0.03 mg/kg/day, 0.03 mg/kg/day oral, Study 2, read-out: Colon content concentration) of 90.1 nM. It also gave a level at time molar ([4]; male, Sprague-Dawley, rat, colon content, po, 0.3 mg/kg/day, 0.3 mg/kg/day oral, Study 1, read-out: Colon content concentration) of 973 nM, a level at time molar ([4]; male, Sprague-Dawley, rat, colon content, po, 0.3 mg/kg/day, 0.3 mg/kg/day oral, Study 2, read-out: Colon content concentration) of 1050 nM and a level at time molar ([4]; male, Sprague-Dawley, rat, colon content, po, 0.3 mg/kg/day, 0.3 mg/kg/day oral, Study 3, read-out: Colon content concentration) of 1680 nM. It also gave a level at time molar ([4]; male, Sprague-Dawley, rat, colon content, po, 10 mg/kg/day, 10 mg/kg/day oral, Study 2, read-out: Colon content concentration) of 38700 nM, a level at time molar ([4]; male, Sprague-Dawley, rat, colon tissue, po, 0.3 mg/kg/day, 0.3 mg/kg/day oral, Study 2, read-out: Colon tissue concentration) of 47.5 nM and a level at time molar ([4]; male, Sprague-Dawley, rat, colon tissue, po, 0.3 mg/kg/day, 0.3 mg/kg/day oral, Study 3, read-out: Colon tissue concentration) of 23.4 nM. For the same compound, the level at time molar ([4]; male, Sprague-Dawley, rat, colon tissue, po, 1 mg/kg/day, 1 mg/kg/day oral, Study 1, read-out: Colon tissue concentration) was 84.3 nM, the level at time molar ([4]; male, Sprague-Dawley, rat, colon tissue, po, 1 mg/kg/day, 1 mg/kg/day oral, Study 2, read-out: Colon tissue concentration) was 168 nM and the level at time molar ([4]; male, Sprague-Dawley, rat, colon tissue, po, 1 mg/kg/day, 1 mg/kg/day oral, Study 3, read-out: Colon tissue concentration) was 83.2 nM. For the same compound, the level at time molar ([4]; male, Sprague-Dawley, rat, colon tissue, po, 10 mg/kg/day, 10 mg/kg/day oral, Study 2, read-out: Colon tissue concentration) was 1410 nM.
